Consider ten compounds from patent publication US10973820B2, “Compounds for treatment of diseases related to DUX4 expression” (Facio Intellectual Property B.V., priority 2017, dated 2021).

The subject of assay [1] is DUX4. Nature of the assay: DUX4 repression, high-content immunocytochemistry assay in primary FSHD myotubes. Particulars: for EC50: Homo sapiens, Myotube, read-out: EC50 DUX4. In kind it is cell-based, human. The text has this:
A quantitative assay readout was developed based on script-based image analysis. […] To analyse the images, an automated script was developed, enabling the detection of nuclei, myotube borders and DUX4 signals, with the script also detecting artefacts to reduce false positive signals. The script enabled multiple validated readouts including the number of DUX4 positive nuclei and nuclei clusters, the fusion index, myotube area, myotube width and myotube skeleton length (see FIG. 2). Additionally, the total nuclei count was included as a measure of cell loss or compound toxicity.
A compound library containing approximately 5000 annotated compounds was screened in the high-content assay. For this purpose, primary myoblasts were seeded in 384 well plates after which the growth medium was replaced with differentiation medium. After 3 days of differentiation, cells were treated with library compounds (in duplicate on different screening plates) for 15 h, after which they were fixed and stained with antibodies against DUX4, antibodies against myosin heavy chain (MHC), and with DAPI (4′,6-diamidino-2-phenylindole). Script-based analysis provided readouts for DUX4 expression (count of DUX4-positive nuclei or DUX4 intensity) and for potential toxicity (fusion index and nuclei count).
Compounds were incubated with primary FSHD cells for 15 hours, as indicated by the arrow in FIG. 4A.
Compounds are administered either 15 h before fixation, resembling the original screening protocol, or 72 h before fixation (grey arrow). In the latter case, compounds are present during the whole differentiation process.

The target of another assay is CK1 α (Homo sapiens, UniProt P48729). Nature of the assay: inhibition of CK1 α by CK1 inhibitors. The assay is classed as biochemical. The text has this:
IC50 values for CK1 can be determined using any method known in the art, for example as described in WO2011051858, WO2015119579, EP2949651, or US2005/0131012. Suitable assays can use a peptide substrate and a readout method, for example using the Kinase-Glo assay (Promega, part # V672A).

For another assay, the target named is CK1 δ (Homo sapiens, UniProt P48730). Nature of the assay: inhibition of CK1 δ by CK1 inhibitors. The assay is classed as biochemical. The text has this: (§1) Suitable assays can use a peptide substrate and a readout method, for example using the Kinase-Glo assay (Promega, part # V672A).
Chain of CK1 δ (P48730 whole entry): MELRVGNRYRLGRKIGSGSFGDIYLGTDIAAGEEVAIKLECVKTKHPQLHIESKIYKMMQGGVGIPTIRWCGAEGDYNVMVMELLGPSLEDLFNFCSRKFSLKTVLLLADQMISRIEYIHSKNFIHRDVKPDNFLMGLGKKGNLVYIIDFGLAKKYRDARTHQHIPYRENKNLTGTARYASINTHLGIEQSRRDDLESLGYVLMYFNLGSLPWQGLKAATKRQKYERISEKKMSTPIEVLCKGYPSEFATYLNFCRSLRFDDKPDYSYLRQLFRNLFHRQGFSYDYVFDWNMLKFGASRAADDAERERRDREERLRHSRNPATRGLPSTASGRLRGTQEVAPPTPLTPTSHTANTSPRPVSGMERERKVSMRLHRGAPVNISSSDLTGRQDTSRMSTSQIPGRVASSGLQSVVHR
The target in another assay is p38 (Homo sapiens, UniProt Q16539). Nature of the assay: inhibition of p38 by CK1 inhibitors. Particulars: p38α. In kind it is biochemical.
Chain of p38 (Q16539 whole entry): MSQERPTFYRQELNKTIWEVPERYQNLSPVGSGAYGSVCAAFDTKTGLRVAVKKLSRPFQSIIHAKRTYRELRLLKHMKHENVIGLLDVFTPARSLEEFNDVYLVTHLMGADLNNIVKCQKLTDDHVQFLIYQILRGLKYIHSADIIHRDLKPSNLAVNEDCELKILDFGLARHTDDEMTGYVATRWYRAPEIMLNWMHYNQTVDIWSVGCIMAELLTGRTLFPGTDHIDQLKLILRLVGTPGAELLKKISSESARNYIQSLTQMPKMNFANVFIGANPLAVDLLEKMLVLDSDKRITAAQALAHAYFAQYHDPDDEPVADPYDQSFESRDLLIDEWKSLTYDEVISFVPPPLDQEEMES
The target of a further assay is CK1 ε (Homo sapiens, UniProt P49674). Nature of the assay: inhibition of CK1 ε by CK1 inhibitors. The assay is classed as biochemical.
Chain of CK1 ε (P49674 whole entry): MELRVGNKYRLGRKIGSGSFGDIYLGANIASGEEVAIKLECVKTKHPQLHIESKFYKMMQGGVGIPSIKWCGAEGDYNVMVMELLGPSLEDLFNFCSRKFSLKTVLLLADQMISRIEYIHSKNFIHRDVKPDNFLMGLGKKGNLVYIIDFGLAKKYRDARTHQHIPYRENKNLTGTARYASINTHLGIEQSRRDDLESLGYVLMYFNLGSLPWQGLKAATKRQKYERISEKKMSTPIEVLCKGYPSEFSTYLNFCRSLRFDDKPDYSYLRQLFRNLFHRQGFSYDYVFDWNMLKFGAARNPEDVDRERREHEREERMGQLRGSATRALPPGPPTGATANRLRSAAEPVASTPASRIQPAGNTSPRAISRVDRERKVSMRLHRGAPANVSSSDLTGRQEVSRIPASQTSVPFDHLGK
From the text: as §1

The next assay concerns pancreatic tumor cell. Particulars: in vitro and in vivo; cited from earlier work.
Assay [2] concerns DUX4. The note with it: immortalised differentiated myotube cultures; cited from earlier work.
[3] abbreviates: primary FSHD cells, compound incubation 15 hours.

Where two headings read alike, the source gives them in different places. Some results are limits rather than exact numbers.

Chain of CK1 α (P48729 whole entry): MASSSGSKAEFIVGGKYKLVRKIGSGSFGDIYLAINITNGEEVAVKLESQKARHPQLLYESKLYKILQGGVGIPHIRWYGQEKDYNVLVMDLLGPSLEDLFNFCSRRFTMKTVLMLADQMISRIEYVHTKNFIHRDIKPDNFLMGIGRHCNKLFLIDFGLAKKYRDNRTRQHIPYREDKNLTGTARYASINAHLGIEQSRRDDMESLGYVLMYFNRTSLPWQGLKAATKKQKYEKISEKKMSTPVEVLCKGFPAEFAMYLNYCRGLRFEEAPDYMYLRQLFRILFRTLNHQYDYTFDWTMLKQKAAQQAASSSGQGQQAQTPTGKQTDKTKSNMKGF

One may read the EC50 as the concentration giving half of the maximal effect. For orientation: IC50 means the concentration that inhibits the measured activity by half. Read a low IC50 as greater potency in that assay. Consider `CC1(C)CN(c2ccc3nc(-c4ccc(F)cc4)c(-c4ccncc4)n3n2)CCN1` [Compound A], for which, in the assay with DUX4 [1] (setting [3]), the EC50 amounted to 50 nM. Also, the IC50 against CK1 α stood at 30 nM; at CK1 δ, 19 nM; against p38 it was 13 nM; on CK1 ε it was 12 nM.

For `Cn1cc(-c2ccnc3c2C(=O)OC3)c(-c2ccc(F)cc2)n1` [Compound D], the EC50 with DUX4 [1] (setting [3]) was determined as 1410 nM. Besides, the 50% inhibitory concentration (IC50) was 644 nM against CK1 α, 33.1 nM at CK1 δ, 569 nM against p38 and 51.6 nM on CK1 ε.

For `CN1Cc2nccc(-c3cn(C)nc3-c3ccc(F)cc3)c2C1=O` [Compound E], the half-maximal effective concentration (EC50) with DUX4 [1] (15 h) was found to be 1890 nM. For the same compound, the figures for the IC50 at CK1 α and against p38 were 592 nM and 1110 nM, respectively.

Regarding `Cn1cc(-c2ccnc3c2C(=O)N(C2CCOCC2)C3)c(-c2ccc(F)cc2)n1` [Compound F], the EC50 in the assay on DUX4 [1] (setting [3]) was 2590 nM. The IC50 on CK1 α turned out to be 561 nM; on CK1 δ it was 18 nM; against p38, 677 nM; against CK1 ε, 72 nM.

For `Fc1ccc(-c2nc3ccc(N4CCNCC4)nn3c2-c2ccncc2)cc1` [Compound H], in the assay with DUX4 [1] (setting [3]), the half-maximal effective concentration (EC50) was determined as 10 nM. The IC50 at CK1 α is 33 nM; against CK1 δ, 22 nM; on p38, 25 nM; at CK1 ε it was 16 nM.

For the compound `COc1cc(OC)c(C=C2C(O)=Nc3ccccc32)c(OC)c1` [IC261], the “pancreatic tumor cell growth” value in the assay on pancreatic tumor cell was “reduces pancreatic tumor cell growth”.

Consider `Nc1nccc(-c2c(-c3ccc(F)cc3)ncn2C2CCCCC2)n1` [PF-670462, reference compound], for which, in the assay with DUX4 [1] (setting [3]), the EC50 was 470 nM. Further, the 50% inhibitory concentration (IC50) at CK1 α came out at 320 nM; on p38, 32 nM.

As to `Nc1nccc(-c2c(-c3ccc(F)cc3)ncn2C2CCN(Cc3ccon3)CC2)n1` [PF-5006739, reference compound], the concentration for a half-maximal effect (EC50) in the assay with DUX4 [1] (setting [3]) was determined as 820 nM. Also, the IC50 against CK1 α came out at 123 nM; against CK1 δ, 20 nM; on p38, 74 nM; against CK1 ε, 27 nM.

For `COc1cc(OC)c2c(=O)[nH]c(-c3cc(C)c(OCCO)c(C)c3)nc2c1` [RVX-208, reference compound], the “effect on DUX4 expression” value in the assay with DUX4 [1] (irrespective of treatment time (15 h or 72 h)) is given as “did not show any effect on DUX4 expression”. Besides, the “expression of DUX4” value with DUX4 [2] was “can inhibit the expression of DUX4”.

In the case of `Fc1cccc(-n2cnc3c(NCc4nc5ccc(F)c(F)c5[nH]4)nc(N4CCOCC4)nc32)c1` [SR-3029, reference compound], in the assay on DUX4 [1] (15 h), the EC50 worked out at 50 nM. Moreover, the IC50 at CK1 α and against p38 was above 10000 nM in each case.
